We go through four compounds from US5767261A, “Lepidopteran GABA gated chloride channel and nucleic acids encoding subunits thereof” (priority 1995, dated 1998).

Assay [1] has as its target T1, Heliothis virescens cyclodiene resistant chloride channel (Heliothis virescens, UniProt O18468).
T1 construct: in vitro transcribed pIVY12 mRNA injected into Xenopus oocytes, homomeric channel
T1 sequence (O18468 30-496): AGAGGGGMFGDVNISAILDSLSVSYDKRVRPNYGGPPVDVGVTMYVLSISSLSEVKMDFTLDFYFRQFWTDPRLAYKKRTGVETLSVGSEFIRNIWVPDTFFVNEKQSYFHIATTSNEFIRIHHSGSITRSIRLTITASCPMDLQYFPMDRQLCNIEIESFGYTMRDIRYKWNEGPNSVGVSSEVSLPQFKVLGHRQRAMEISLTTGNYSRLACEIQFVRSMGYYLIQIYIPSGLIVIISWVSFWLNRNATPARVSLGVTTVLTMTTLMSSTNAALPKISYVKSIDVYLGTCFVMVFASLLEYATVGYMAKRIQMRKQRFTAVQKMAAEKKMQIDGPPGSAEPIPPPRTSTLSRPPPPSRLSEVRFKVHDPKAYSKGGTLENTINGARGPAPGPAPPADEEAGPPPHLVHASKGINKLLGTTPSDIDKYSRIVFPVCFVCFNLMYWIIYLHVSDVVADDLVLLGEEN
Description: Two-electrode voltage clamp recordings of Xenopus oocytes injected with pIVY12 mRNA. To be noted: for gross effect of known agonist / antagonist on the channel: similar assays. Format: cell-based. As for the experimental part:
(§1) Messenger RNA was produced from the cDNA template of pIVY12 described in Example I by in vitro transcription with the Ambion mMESSAGE mMACHINE IN VITRO TRANSCRIPTION KIT™ (Ambion, Inc.) The mRNA was injected into oocytes by the following procedure.
(§2) Frogs were anesthetized in a 2 gram/liter solution of 3-amino benzoic acid ethyl ester for thirty minutes, after which oocytes were surgically removed from the abdominal cavity. Follicles were digested by collagenase treatment under sterile conditions by standard methods. Oocytes were injected with 50 nl of mRNA by glass electrodes.
(§3) Following a 24 to 48 hour incubation, two-electrode voltage clamp recordings were made. Recordings were made using a Dagan TEV200 voltage clamp interfaced with a MacLab4 data acquisition system running the MacLab Chart data acquisition/analysis software. Oocytes were positioned under a dissecting scope under constant perfusion with ND-96 standard saline using a Razel syringe perfusion pump, model A99-FY at 93.9 cc/hr. Glass electrodes (A-M Systems, Inc., 1.5 mm×0.86 mm) were filled with 3M KCl and resistance ([…]) was measured to be between 0.7 and 1.5 mega ohms. Both electrodes were inserted into the oocyte at opposite sides, the resting potential was recorded and the voltage clamp turned on. Oocytes were held at a resting potential between -70 and -50 mV. Control responses of GABA were obtained by stopping the perfusion of saline and perfusing with a known concentration of GABA in ND-96 with 0.1% DMSO. The average of several GABA applications was taken as the maximal chloride current for that particular GABA dose. The effect of 10 micromolar GABA on the lepidopteran GABA gated chloride channel expressed in Xenopus oocytes is depicted in FIG. 4. […] In particular, the Heliothis virescens cyclodiene resistant chloride channel is about ten times less sensitive to block by fipronil than the Drosophila Rdl chloride channel.

Assay [2] concerns the target T2, Heliothis virescens cyclodiene resistant GABA gated chloride channel (Heliothis virescens, UniProt O18468).
T2 sequence (O18468 30-496): T1 sequence (O18468 30-496)
Briefly: Whole cell voltage clamp recordings of Sf9 cells infected with recombinant baculovirus Elise13. Particulars: 1×10^-3 M GABA, thirty hours post infection, FIG. 3. It counts as cell-based. From the text: A BamHI/XhoI DNA fragment from plasmid pIVY12 described in Example 1 containing the complete coding sequence of the Heliothis virescens cyclodiene resistant GABA gated chloride channel subunit was cloned into the baculovirus transfer vector pBacPac8 (Clontech). The resulting vector, pIVY13, contains cDNA encoding the Heliothis virescens cyclodiene resistant GABA gated chloride channel subunit under the control of the polyhedrin promoter. The 8.0 kb vector, PIVY13, consists of the Heliothis sequence of pIVY12 cloned into the BamHI/XhoI site of pBacPac8 and is depicted in FIG. 2. Spodoptera frugiperda 9 (Sf9) cells were cotransfected by pIVY13 and wild type Autographa californica nuclear polyhedrosis virus (AcMNPV) using the lipofectin procedure. In transfer vector pIVY13, flanking AcMNPV sequences allowed recombination with the viral DNA, thus resulting in the transfer of the expression cassette of the Heliothis cDNA and the polyhedrin promoter to the polyhedrin locus of the viral DNA. The recombinant virus thus generated was designated Elise13. Viral stocks of Elise13 were generated by standard procedures described by O'Reilly et al. (1992) Baculovirus Expression Vectors, A Laboratory Manual, W. H. Freeman and Company. Sf9 cells were infected with Elise13 at a multiplicity of infection of 5 plaque forming units (PFU) per cell by standard procedures. […]

Assay [3] addresses T3, Heliothis GABA gated chloride channel (Heliothis virescens, UniProt O18468).
T3 sequence (O18468 30-496): T1 sequence (O18468 30-496)
Description: Whole cell patch clamp recordings of permanently transformed Drosophila SH1 cell lines (pIVY17). Particulars: SH1 cells, induced by 10 μM cadmium chloride for 48 hours, FIG. 7. Format: cell-based. From the text:
To verify that expression of cDNA encoding the GABA gated chloride channel subunit results in production of a functional GABA gated chloride channel, hole cell voltage clamp recordings were made at thirty hours post infection. […] The results presented in this example indicate that expression of DNA encoding a lepidopteran GABA gated chloride channel subunit in Sf9 cells results in a functional GABA gated chloride channel.
Drosophila cell line SH1 was transformed with plasmid pIVY17 using lipofectin obtained from GIBCO-BRL following the manufacturer's instructions. Selection of insect cell transformants was accomplished with hygromycin at a concentration of 200 μg/ml. The Heliothis GABA gated chloride channel expression was induced by 10 μM cadmium chloride added to the growth medium for 48 hours prior to electrophysiological readings. Whole cell voltage patch clamping recordings were performed on a number of cell lines as described in Example III.
For orientation: The patch-clamp technique gives a direct electrical read-out from membranes.

The subject of assay [4] is Heliothis virescens cyclodiene resistant chloride channel. Description: Two-electrode voltage clamp recordings of Xenopus oocytes injected with pIVY12 mRNA. To be noted: agonized by GABA. Format: cell-based. As for the experimental part: as §1, §2, §3
A general note: In two-electrode clamp one electrode senses voltage and the other passes current.

The target in assay [5] is T4, Drosophila Rdl chloride channel (Drosophila melanogaster, UniProt P25123).
T4 sequence (P25123 45-606): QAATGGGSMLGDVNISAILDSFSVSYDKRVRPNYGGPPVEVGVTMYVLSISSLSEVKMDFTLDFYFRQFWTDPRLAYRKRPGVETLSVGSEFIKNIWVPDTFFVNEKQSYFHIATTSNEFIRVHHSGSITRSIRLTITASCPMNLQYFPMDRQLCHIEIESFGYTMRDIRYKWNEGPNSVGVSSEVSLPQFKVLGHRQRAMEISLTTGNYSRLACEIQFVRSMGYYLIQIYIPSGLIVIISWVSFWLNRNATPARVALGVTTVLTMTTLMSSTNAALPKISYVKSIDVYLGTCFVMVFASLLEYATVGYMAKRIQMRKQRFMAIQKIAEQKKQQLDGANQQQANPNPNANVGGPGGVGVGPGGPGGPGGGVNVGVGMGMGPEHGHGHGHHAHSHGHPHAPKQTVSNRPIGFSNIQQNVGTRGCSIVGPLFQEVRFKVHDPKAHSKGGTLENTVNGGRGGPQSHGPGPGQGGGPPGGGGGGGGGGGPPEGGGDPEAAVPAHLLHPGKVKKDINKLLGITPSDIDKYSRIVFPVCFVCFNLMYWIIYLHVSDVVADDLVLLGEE
Particulars: 10 micromoles of picrotoxinin; cited from earlier work.

`NCCCC(=O)O` [GABA, gamma-amino butyric acid]: the “functional effect on the GABA gated chloride channel” value in assay [1] (10 micromolar GABA, FIG. 4) is on record as “exhibits the predicted gross functional effect”. Moreover, the “functional effect on the GABA gated chloride channel (flux of chloride ion)” value in assay [2] was “exhibits the gross functional effect on the GABA gated chloride channel”; in assay [3], “exhibits the predicted gross functional effect”.

Regarding `N#Cc1nn(-c2c(Cl)cc(C(F)(F)F)cc2Cl)c(N)c1[S+]([O-])C(F)(F)F` (stereo not drawn) [fipronil], in assay [4], the “reduction of sensitivity to block relative to Drosophila Rdl chloride channel” value was “about ten”.

On to `NCc1cc(=O)[nH]o1` [muscimol], for which, in assay [1], the “gross effect of known agonist / antagonist on the channel” value is “exhibited the predicted gross effects”.

Turning to `C=C(C)[C@@H]1[C@H]2OC(=O)[C@@H]1[C@]1(O)C[C@H]3O[C@]34C(=O)O[C@H]2[C@]14C` [picrotoxinin], in assay [1] (10 micromoles of picrotoxinin), the “block of the Heliothis channel” value is on record as “fifty”. In addition, in assay [1], the “gross effect of known agonist / antagonist on the channel” value is “exhibited the predicted gross effects”. In assay [4], the “reduction of sensitivity to block relative to Drosophila Rdl chloride channel” value is recorded as “more than 100 times”. Also, the “block of Drosophila Rdl” value in assay [5] was “nearly complete block”.
